Data reported in the supplement of paper PMC11616607.

Tests used:
Assay in all cases: drug sensitivity score (DSS) from 5-point dose-response viability curve (DSS (area-under-curve based score)); higher = more sensitive (stronger growth inhibition or killing); extreme values may be limits of the assay
Conditions in all cases: exposure time: 72 h; concentration range: 5 concentrations over 10,000-fold range
OVCAR4 = test system: OVCAR4
Outline: (§1)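 Ovarian cancer and normal ovarian cell lines were tested in 384-well plates, with drugs dispensed acoustically (Echo 550) in DMSO or water at five concentrations covering a 10,000-fold range. After 1,500 cells per well were added, plates were incubated for 3 days at 37°C and 5% CO2, and viability was read by CellTiter-Glo luminescence on a PHERAstar FS. Breeze software gave a drug sensitivity score for each cell line and drug, where a higher score means greater sensitivity. A value of zero means no response.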

Kuramochi = test system: Kuramochi
Outline: as §1

Ovsaho = test system: Ovsaho
Outline: as §1

JHOS2 = test system: JHOS2
Outline: as §1

HOSE2C = test system: HOSE2C
Outline: as §1

COV362 = test system: COV362
Outline: as §1

OV90 = test system: OV90
Outline: as §1

HOSE1C = test system: HOSE1C
Outline: as §1

CAOV3 = test system: CAOV3
Outline: as §1

COV318 = test system: COV318
Outline: as §1

OVCAR5 = test system: OVCAR5
Outline: as §1

OVCAR8 = test system: OVCAR8
Outline: as §1

Row | SMILES | drug sensitivity score (OVCAR4) | drug sensitivity score (Kuramochi) | drug sensitivity score (Ovsaho) | drug sensitivity score (JHOS2) | drug sensitivity score (HOSE2C) | drug sensitivity score (COV362) | drug sensitivity score (OV90) | drug sensitivity score (HOSE1C) | drug sensitivity score (CAOV3) | drug sensitivity score (COV318) | drug sensitivity score (OVCAR5) | drug sensitivity score (OVCAR8)
1 | CS(=O)(=O)N1CCN(Cc2cc3nc(-c4cccc5[nH]ncc45)nc(N4CCOCC4)c3s2)CC1 [Pictilisib] | 5.3 | 10.6 | 9.5 | 3.8 | 8.2 | 5.9 | 6.2 | 6.8 | 9.8 | 5.3 | 12.1 | 8.3
2 | CCn1c(=O)c(-c2ccc(Cl)cc2Cl)cc2cnc(Nc3ccc(N4CCNCC4)c(F)c3)nc21 [FRAX486] | 5.1 | 4.3 | 7 | 3.7 | 12.1 | 6.3 | 5.5 | 7.6 | 4.2 | 4.2 | 4.9 | 3.8
3 | Cn1cnc2c(F)c(Nc3ccc(Br)cc3Cl)c(C(=O)NOCCO)cc21 [Selumetinib] | 4.2 | 5.4 | 11.1 | 5.4 | 0 | 5.8 | 20.1 | 0.2 | 11.2 | 0 | 11.2 | 2.1
4 | Cn1cc(C2=C(c3cn(C4CCN(Cc5ccccn5)CC4)c4ccccc34)C(=O)NC2=O)c2ccccc21 [Enzastaurin] | 0 | 0 | 2 | 0.1 | 1.5 | 1.6 | 0 | 0.2 | 0 | 0 | 2.6 | 4.2
5 | CN1CCN(C2CCN(C(=O)Nc3cc(Oc4ccc(NC(=O)C5(C(=O)Nc6ccc(F)cc6)CC5)c(F)c4)ccn3)CC2)CC1 [Golvatinib] | 0 | 0.8 | 0 | 0 | 0 | 0 | 1.4 | 0 | 0 | 0 | 0.1 | 0
6 | FC(F)c1nc2ccccc2n1-c1nc(N2CCOCC2)nc(N2CCOCC2)n1 [ZSTK474] | 7.7 | 17.4 | 10.6 | 4 | 10.6 | 4.4 | 5.7 | 8.8 | 8 | 7.8 | 11 | 8.9
7 | O=C(CCNC(=O)c1ccc(OC(F)(F)F)cc1)N[C@@H]1CCCc2ccccc21 [ML390] | 0 | 5.3 | 4.1 | 3.4 | 13.4 | 0 | 5.6 | 19.8 | 0.6 | 4.1 | 2 | 4.9
